Laboratory results reported in patent publication US20060281680A1, “Methods and compositions for modulating vascular integrity” (GENENTECH, INC., priority 2005, published 2006).

Experiments:
Type in all cases: cell-based, human
DSCR1 [1] = experiment: GeneCalling analysis of DSCR1 mRNA expression in HUVECs; details: VEGF 30 ng/mL, relative to basal conditions
From the text: (§1) Cells and cell assays. Primary human endothelial cells were purchased from Clonetics (Santa Rosa, Calif.) and cultured according to the manufacturer's instructions. For gene calling experiments, human umbilical vein endothelial cells (HUVECs) were purchased from Clonetics (BioWhittaker, Walkersville, Md.) and maintained in endothelial growth medium (EBM-2) complemented with 5% fetal calf serum (FCS) following the manufacturer's instructions. Cells (1×107) were split at a cell density of 19 000 cell/cm2 and triplicate experiments for each condition were run in parallel. Twenty-four hours after plating the cells, cell were washed 3 times with phosphate-buffered saline (PBS) and media (Clonetics) containing either 0.1% bovine serum albumin (BSA) or 0.1% BSA plus VEGF (30 ng/mL) or 5% FCS. RNA isolation and reverse transcription-PCR (RT-PCR) analysis was performed as described.^21 For cell culture experiments, the following conditions were used: human (h) VEGF, 30 ng/mL; hTNF-α, 10 ng/mL; PMA, 200 ng/mL (Calbiochem, LaJolla, Calif.); CsA, 1 μM (Calbiochem); IO 5 μM (Sigma, St Louis, Mo.); thapsigargin, 50 nM (Sigma). […] 24 hours after serum starvation and dosing, cell were counted on a Coulter brand style cell counter. […]

HUVECs = experiment: GeneCalling gene expression profiles of stimulated HUVECs
From the text: as §1

DSCR1 [2] = experiment: DSCR1 expression analysis by real-time RT-PCR (TaqMan) in HUVECs; details: serum-starved HUVECs, over 36 hours
From the text: (§2) Cells and cell assays. Primary human endothelial cells were purchased from Clonetics (Santa Rosa, Calif.) and cultured according to the manufacturer's instructions. For gene calling experiments, human umbilical vein endothelial cells (HUVECs) were purchased from Clonetics (BioWhittaker, Walkersville, Md.) and maintained in endothelial growth medium (EBM-2) complemented with 5% fetal calf serum (FCS) following the manufacturer's instructions. Cells (1×107) were split at a cell density of 19 000 cell/cm2 and triplicate experiments for each condition were run in parallel. Twenty-four hours after plating the cells, cell were washed 3 times with phosphate-buffered saline (PBS) and media (Clonetics) containing either 0.1% bovine serum albumin (BSA) or 0.1% BSA plus VEGF (30 ng/mL) or 5% FCS. RNA isolation and reverse transcription-PCR (RT-PCR) analysis was performed as described.^21 For cell culture experiments, the following conditions were used: human (h) VEGF, 30 ng/mL; hTNF-α, 10 ng/mL; PMA, 200 ng/mL (Calbiochem, LaJolla, Calif.); CsA, 1 μM (Calbiochem); IO 5 μM (Sigma, St Louis, Mo.); thapsigargin, 50 nM (Sigma). In one instance inhibiting (si) RNAs were generated by Dharmacon (Lafayette, Colo.) based on the full-length cDNAs of the respective gene and using the “Smart-pool” service (Dharmacon, Lafayette, Colo.). For adenoviral transduction survival experiments, human umbilical vein endothelial cells (HUVECs) were maintained in endothelial growth medium (EBM-2) complemented with 5% FCS following the manufacturer's instructions. 3×10^5 cells were split per well of a 6 well plate (Primaria, BD Biosciences, Bedford, Mass.) and duplicate experiments for each condition were run in parallel. Cells were infected with adenovirus (MOI=100) encoding for a gD peptide (Ad-Control), DSCR1 (Ad-DSCR1) or an antisense construct with the coding sequence inverted (Ad-DSCR1-AS) for 2 h in serum free media containing 10 mM […] and 10 nM MgCl2 on a vertical shaker at room temperature. Thereafter, 5 times the volume of regular growth medium containing 5% FCS was added and cells were kept for 1 day in a CO2 incubator. Thereafter, cells were washed three times with PBS and basal media (Clonetics, Santa Rosa, Calif.) containing 0.1 % BSA was added and PMA/IO, H202, and ZVAD as indicated. 24 hours after serum starvation and dosing, cell were counted on a Coulter brand style cell counter. For cell culture experiments, the following conditions were used: PMA: 200 ng/ml (Calbiochem, LaJolla, Calif.), Ionomycine: 5 μM (Sigma, St. Louis, Mo.), a 3% H202 solution was diluted 1:300 in basal media, 0.1% BSA to result in a 0.01% H202 solution, ZVAD 5 μM.

DSCR1 [3] = experiment: DSCR1 expression by real-time RT-PCR in HPAECs, HMVECs and HUAECs; details: HMVECs, HUAECs
From the text: as §1

DSCR1 [4] = experiment: Western blot of DSCR1 protein in whole cell extracts of HUVECs; details: 6 hours of stimulation
Method: Cells cultured in 10-cm dishes were washed twice in Tris (tris(hydroxymethyl)aminomethane)-buffered saline, and 0.6 mL RIPA buffer (10 mM PBS, 1% Nonidet P-40, 0.5% sodium deoxycholate, 0.1% sodium dodecyl sulfate [SDS], […] phenylmethylsulfonyl fluoride, 30 μg/mL aprotinin, 1 mM sodium orthovanadate), and protease inhibitors (Roche Pharmaceuticals, Gaithersburg, Md.) were added. Mouse monoclonal antibody (mAb) directed against human NFATc 1, c2, and c3 was purchased from Santa Cruz Biotechnology (Santa Cruz, Calif.). Affinity-purified goat polyclonal antibody against human E-selectin, vascular cell adhesion molecule-1 (VCAM-1), intercellular adhesion molecule-1 (ICAM-1), and Cox-2 was from BD Pharmingen. Total endothelial cell extract, polyacrylamide gel electrophoresis (PAGE), blotting, and immunodetection were performed according to the Santa Cruz Biotechnology protocol. A total of […] whole-cell extract was loaded on each lane of a 4% to 16% polyacrylamide gel. The enhanced chemiluminescence (ECL) reaction kit was purchased from Amersham Pharmacia Biotech (Piscataway, N.J.), and horseradish peroxidase streptavidin from Vector Laboratories (Burlingame, Calif.) was used. For NFATc1 experiments, equal amounts of cell extract were loaded to visualize NFATc1 (mAb 7A6; 1:500; Santa Cruz Biotechnology) and the loading control α-tubulin (mAb from ICN, Santa Ana, Calif.; 1:5000). For Cox-2 and TF immunoblot analysis equal amounts of cell lysate were loaded on a 6% to 12% gradient SDS-PAGE. Cox-2 was analyzed with an anti-Cox2 mAb (RDI, 1:500) and TF with an anti-hTF mAb (clone 7G11) was generated at Genentech, and used at a 1:500 dilution. Before loading the samples on the gel, the protein amounts were quantified and adjusted accordingly. As loading control, an anti-γ-adaptin mAb was used (1:1000) on a 4% to 20% polyacrylamide gel.
DSCR1 was PCR amplified with primers DSCR1-EcoRI-Pro 5′, adding an extra proline and DSCR1-Stop-XhoI 3′, by using DSCR1 cDNA as a template and cloned into pGEX-KG. GST-DSCR1 was expressed and purified essentially as described previously.^23 Polyclonal rabbit anti-GST-DSCR1 was prepared by immunization with recombinant GST-DSCR1. Filtered crude serum was used for Western blots (1:400).

NFATc1 = experiment: IHC/immunofluorescence analysis of nuclear translocation of NFATc1; details: endothelial cells, 20 minutes after VEGF 30 ng/mL; adenoviral transduction MOI=100
Method: Primary human endothelial cells (7×10^3 cells/cm^2) were seeded into each well of an 8-chamber microscope slide (Nalgene Nunc, Naperville, Ill.) 24 hours prior to staining. Cells were infected with adenovirus (multiplicity of infection [MOI]=100) encoding for LacZ or DSCR1 for 2 hours in serum-free media containing 10 mM CaCl2 and 10 nM MgCl2 on a vertical shaker at room temperature. Thereafter, 5 times the volume of regular growth medium was added and cells were kept for 2 days in a CO2 incubator. After replacing the media, cells were treated with hVEGF at a concentration of 30 ng/mL for 20 minutes. Prior to incubation with various antibodies, cells were fixed with methanol for 4 minutes at −20° C. and washed with PBS at room temperature. Cells were incubated in PBS containing the primary mouse antihuman NFATc1 antibody (sc7294, Santa Cruz Biotechnology) for 1 hour at room temperature. Cells were then washed 3 times with PBS and incubated in PBS containing Alexa Fluor 488 antimouse IgG (Molecular Probes, Eugene, Oreg.). Cells were finally washed 3 times with PBS and mounted beneath coverslips in Vectashield medium (Vector Laboratories). Microscopy and photography were conducted using a Zeiss Axiovert 200 fluorescence microscope fitted with an AxioCam MR monochrome camera (Zeiss, Thornwood, N.Y.) using a ×63 oil objective.

Cox-2, E-selectin, TF = experiment: Real-time RT-PCR of inflammatory marker / VEGF target genes in HUVECs
From the text: as §2

Substance: VEGF
- induced DSCR1 mRNA expression (DSCR1 [1]; after 6 hours): 4.8 fold
- induced DSCR1 mRNA expression (DSCR1 [1]; after 24 hours): 2.9 fold
- changes in traces representing alterations in expression of genes (HUVECs; after 6 hours): 1.7%
- changes in traces representing alterations in expression of genes (HUVECs; after 24 hours): 3.4%
- DSCR1 expression levels (real-time RT-PCR) (DSCR1 [2]): induced prolonged expression of DSCR1
- DSCR1 expression (real-time RT-PCR) (DSCR1 [3]): increased levels of DSCR1 expression
- DSCR1 protein levels (DSCR1 [4]): induction of DSCR1
- nuclear localization of NFATc1 (NFATc1): prominent nuclear localization of NFATc1
- expression of Bcl-2 (Cox-2, E-selectin, TF; HUVECs, VEGF stimulation, entire experiment): consistently expressed
- GM-CSF, TF, COX-2, VCAM-1 and E-selectin RNA levels (Cox-2, E-selectin, TF; HUVECs, between 0 and 2 hours after VEGF): increased
- GM-CSF, TF, COX-2, VCAM-1 and E-selectin RNA levels (Cox-2, E-selectin, TF; HUVECs, between 6 and 36 hours after VEGF, compared to untreated cells): reversed into repression
- increase in gene expression (COX2, E-selectin, TF mRNA) (Cox-2, E-selectin, TF; endothelial cells, 4 hours of incubation): 2- to 3 fold
